# Values joined by “and” are separate entries in the source; they are usually repeats but may differ in a detail not shown here. Equal values may be shown once. Read-outs that look alike come from different tables or passages of the source.
# Tests used:
# [1] = tested on: P. falciparum stage V gametocytes; test: Gametocytocidal ATP bioluminescence assay (single point 5 μM and 1 μM, dose-response); type: cell-based, Plasmodium falciparum; conditions: for Ratio IC50 HepG2/IC50 P. falciparum: IC50 HepG2 divided by IC50 P. falciparum gametocytes
# Description: Purified stage IV-V gametocytes were obtained as previously described [10]. Single point ATP bioluminescence assay and dose–response of positive hits was determined in accordance with the previously published protocol [10].
# HepG2 cells = test: Cytotoxicity in HepG2 cells (intracellular ATP, ATPlite, 48 h); type: cell-based, human; conditions: HepG2 cells; IC50 per ratio column head; unit inferred
# [2] = tested on: P. falciparum asexual stages; conditions: asexual stages; TCAMS data; read-out: IC50 asexual; cited from earlier work
# [3] = P. falciparum gametocytes, average, read-out: IC50 Pf Gametocytes average, IC50 (µM) average
# [4] = sexual stages (gametocytes), dose-response, read-out: IC50 sexual
SMILES,Ratio IC50 HepG2/IC50 P. falciparum [1],"IC50 [1, 3] [µM]",IC50 (HepG2 cells),IC50 [2] [nM],"IC50 [1, 4] [µM]"
CC(=O)N(Cc1ccc(CC(C)NCCc2cccc(Cl)c2)cc1)Cc1ccc(CC(C)NCCc2cccc(Cl)c2)cc1 (stereo not drawn) [TCMDC-139678],1.64,1.4,2300 nM,783,–
COc1ccc2c(OC)c(CNCCCCCCNCc3ccc4cc(OC)ccc4c3OC)ccc2c1 [TCMDC-137953],2,1.54,3200 nM,920,–
CCn1c(-c2nonc2N)nc2c(-c3cccc(NC(=O)Nc4cccc(C#N)c4)c3)ncc(OCCCN)c21 [TCMDC-136195],7,3.51,24700 nM,669,3.52
CN1CCN(c2nsc3ccc(-c4ccc(NC(=O)Nc5cc(C(F)(F)F)ccc5F)cc4)cc23)CC1 [TCMDC-133435],0.851,7.52,6400 nM,245,–
CN1CCCc2cc(NC(=O)C=Cc3ccc(-c4ccc(F)cc4F)o3)ccc2C1 [TCMDC-134051],<1,> 10,13400 nM,783,–
FC(F)(F)COc1c(CCNCCCCNCCc2ccc3ccccc3c2OCC(F)(F)F)ccc2ccccc12 [TCMDC-137169],28,0.1,2800 nM,348,–
CCN(CC)CCCNc1ncc2c(-c3ccc(NC(=O)Nc4cc(C(F)(F)F)ccc4F)cc3)nn(C)c2n1 [TCMDC-141583],2.73,3.48,9500 nM,220,–
CCc1c(CCNCCCCCCNCCc2ccc(Br)cc2)ccc(OC)c1OC [TCMDC-132045],15,0.22,3200 nM,232,0.215
c1ccc2c(CNCCCN3CCN(CCCNCc4c5ccccc5cc5ccccc45)CC3)c3ccccc3cc2c1 [TCMDC-137909],60,0.11,6280 nM,182,0.105
CN1CCN(CCCN(Cc2cccc(-c3ccc(CNCCc4ccccc4)cc3)c2)C(=O)c2cccs2)CC1 [TCMDC-140568],6,0.89,5600 nM,716,–
NCCCOc1cnc(-c2ccccc2)c2nc(-c3nonc3N)n(CCc3ccccc3)c12 [TCMDC-136216],4,1.4,5610 nM,1270,–
C=CC(C)C1OC(=O)c2cc(OC)cc(OC)c21 (stereo not drawn) [TCMDC-138676],2,0.4,800 nM,–,–
O=C(Nc1ccc(F)c(C(F)(F)F)c1)NC1CCN(CCCCCNC(=O)C2CC2c2ccc(Cl)c(Cl)c2)CC1 (stereo not drawn) [TCMDC-136259],1.47,4.35,6400 nM,663,–
CCCCOc1ccc(CNCCCCCCNCc2ccc(OCCCC)c3ccccc23)c2ccccc12 [TCMDC-137281],–,–,3040 nM and 2800 nM,1130,–
CCCOc1ccc2ccccc2c1CNCCCCCCNCc1c(OCCC)ccc2ccccc12 [TCMDC-137966],9,0.34,3100 nM,791,–
CCN(CC)CCOc1ccc(C(O)(C#CC(O)(c2ccc(C)cc2)c2ccc(OCCN(CC)CC)cc2)c2ccc(C)cc2)cc1 (stereo not drawn) [TCMDC-137198],12,0.14,1620 nM,903,–
CCN=C1NC2=C(CC(C(C)(C)C)CC2)C2(CCC(C(C)(C)C)CC2)S1 (stereo not drawn) [TCMDC-131288],5,3,14300 nM,834,–
CC(C)(C)c1ccc(-c2cc3c(ccc4nc(N)nc(N)c43)[nH]2)cc1 [TCMDC-137977],6,0.55,3260 nM,113,–
COc1ccc2c(c1CNCCCCCCNCc1c(OC)ccc3c1CCCC3)CCCC2 [TCMDC-137817],9,0.42,3830 nM,907,–
COc1ccc(CCNCCCCCCNCCc2ccc(Cl)c3ccccc23)cc1OC [TCMDC-131270],25,0.13,3230 nM,580,0.127
C[C@H](Cc1ccc(Oc2ccc(C[C@@H](C)NC[C@H](O)c3cccc(Cl)c3)cc2)cc1)NC[C@H](O)c1cccc(Cl)c1 [TCMDC-131560],7,0.27,1910 nM,560,–
CC(C)COc1ccc2ccccc2c1CNCCCCCCNCc1c(OCC(C)C)ccc2ccccc12 [TCMDC-137972],18,0.1,1880 nM,695,0.103
